Where “and” joins values, the source holds several entries; their conditions need not be identical. Equal entries are not always repeated.
Assays:
[1] = target: PLK1 (Homo sapiens, UniProt P53350); assay: in vitro enzymatic inhibitory activity, PLK1 kinase, 10-dose IC50 mode; format: biochemical; conditions: 10 μM ATP
Protocol: (§1) Compounds were tested against two kinases.
(§2) Data includes raw data, % Enzyme activity (relative to DMSO controls) and curve fits.

[2] = target: T1, WEE1 (Homo sapiens, UniProt P30291); assay: in vitro enzymatic inhibitory activity, WEE1 kinase, 10-dose IC50 mode; format: biochemical; conditions: 10 μM ATP
T1 construct: Drug treated cells are fixed and stained with propidium iodide (PI); endogenous in cells
T1 sequence (P30291 whole entry): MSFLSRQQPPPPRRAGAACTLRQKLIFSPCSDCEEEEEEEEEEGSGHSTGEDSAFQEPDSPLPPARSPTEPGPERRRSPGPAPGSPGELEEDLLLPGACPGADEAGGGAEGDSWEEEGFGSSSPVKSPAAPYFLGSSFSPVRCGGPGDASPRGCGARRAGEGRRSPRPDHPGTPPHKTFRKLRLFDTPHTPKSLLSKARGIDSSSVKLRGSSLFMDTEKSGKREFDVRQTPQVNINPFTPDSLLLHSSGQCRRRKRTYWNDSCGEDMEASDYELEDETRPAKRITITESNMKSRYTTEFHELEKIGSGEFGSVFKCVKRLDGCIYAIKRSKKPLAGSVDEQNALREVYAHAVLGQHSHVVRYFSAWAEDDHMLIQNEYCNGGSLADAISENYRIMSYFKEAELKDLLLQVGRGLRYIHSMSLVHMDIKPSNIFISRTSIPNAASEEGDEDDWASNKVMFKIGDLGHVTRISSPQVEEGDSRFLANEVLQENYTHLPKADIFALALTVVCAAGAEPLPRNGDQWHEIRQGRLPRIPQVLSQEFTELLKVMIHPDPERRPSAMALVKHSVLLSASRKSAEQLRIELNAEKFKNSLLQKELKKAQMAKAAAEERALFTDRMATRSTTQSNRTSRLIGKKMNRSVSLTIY
Protocol: as §1, §2

[3] = target: T1, WEE1; assay: Guava flow cytometry cell cycle assay (DNA content per cell, propidium iodide); format: cell-based; conditions: for WEE1 Guava MEC Guava MEC: single agent, unit assumed; for WEE1 Guava MEC with 20 nM GEM: in µM (unit assumed)
Excerpt: In this example, compounds described herein were subject to an assay that detects changes the phases of the cell cycle upon drug treatment, permitting the identification of drugs that affect cell proliferation in a specific manner. For example, problematic DNA replication causes the percentage of cells in S phase to increase. Thus, quantification of cells in S phase permits identification of drugs that cause defects in DNA replication. Similarly, drugs that selectively defects in progression through G2/M can also be identified. Moreover, synergy between assayed drugs and known cell cycle regulators can be determined, as exemplified by the effect of ATR inhibition when combined with agents that slow DNA replication, which causes replication fork collapse into DSBs and complete loss of DNA synthesis. Two novel drugs can also be combined to quantify synergistic effects on specific cell cycle phases.
The assay operates by the quantification of DNA content per cell by flow cytometry. Cells are assessed for effects on cell cycle using a Guava EasyCyte™ flow cytometer (Austin, TX). Drug treated cells are fixed and stained with propidium iodide (PI) and resuspended in phosphate-buffered saline containing the PI staining buffer. During flow cytometry, PI is excited at 528 nm and is detected in a 610/20 bandpass. Readout of the […] is optical density of DNA-staining dye. The assay generates a histogram showing count of cells by amount of DNA, which is an indicator of place in the cell cycle. This rapid assay detects relative changes in the cell cycle upon drug treatment upon comparison vehicle-treated and single-agent controls for detection of combinatorial interactions. See, Table 4.

Sequence of PLK1 (P53350 whole entry, species assumed): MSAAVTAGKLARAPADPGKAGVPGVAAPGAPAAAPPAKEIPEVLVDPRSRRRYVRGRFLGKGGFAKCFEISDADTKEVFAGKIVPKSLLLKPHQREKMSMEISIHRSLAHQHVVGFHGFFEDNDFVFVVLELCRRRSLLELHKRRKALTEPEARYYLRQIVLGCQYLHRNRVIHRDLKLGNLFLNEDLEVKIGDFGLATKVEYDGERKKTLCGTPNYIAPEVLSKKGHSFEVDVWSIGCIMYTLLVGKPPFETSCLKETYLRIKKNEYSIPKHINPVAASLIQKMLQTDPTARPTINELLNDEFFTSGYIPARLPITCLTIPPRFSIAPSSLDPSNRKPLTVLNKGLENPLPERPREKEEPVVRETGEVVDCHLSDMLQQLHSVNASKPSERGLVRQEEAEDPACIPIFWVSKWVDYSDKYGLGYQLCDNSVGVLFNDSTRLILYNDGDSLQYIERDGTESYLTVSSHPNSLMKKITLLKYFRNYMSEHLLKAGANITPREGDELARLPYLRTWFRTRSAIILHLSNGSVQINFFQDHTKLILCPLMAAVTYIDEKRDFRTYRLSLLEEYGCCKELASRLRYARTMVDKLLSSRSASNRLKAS

Compound | IC50 [1] [nM] | IC50 [2] [nM] | WEE1 Guava MEC Guava MEC [3] [µM] | WEE1 Guava MEC with 20 nM GEM [3]
C=CCn1c(=O)c2cnc(Nc3ccc(N4CCN(C)CC4)cc3)nc2n1-c1cccc(C(C)(C)O)n1 [AZD1775] | 159 |  |  | 
O=c1c2cnc(Nc3ccc4c(c3)CNCC4)nc2c(Br)cn1-c1c(Cl)cccc1Cl [Compound P10, 8-bromo-6-(2,6-dichlorophenyl)-2-(1,2,3,4-tetrahydroisoquinolin-7-ylamino)pyrido[4,3-d]pyrimidin-5-one] |  | 27 | 0.313 | 0.156
CN1CCc2ccc(Nc3ncc4c(=O)n(-c5c(Cl)cccc5Cl)cc(Br)c4n3)cc2C1 [Compound P11, 8-bromo-6-(2,6-dichlorophenyl)-2-[(2-methyl-3,4-dihydro-1H-isoquinolin-7-yl)amino]pyrido[4,3-d]pyrimidin-5-one] |  | 31 | 0.313 | 0.156
O=c1c2cnc(Nc3ccc4c(c3)CNCC43CC3)nc2c(Br)cn1-c1c(Cl)cccc1Cl [Compound P19, 8-bromo-6-(2,6-dichlorophenyl)-2-(spiro[2,3-dihydro-1H-isoquinoline-4,1′-cyclopropane]-7-ylamino)pyrido[4,3-d]pyrimidin-5-one] |  |  | 0.313 | 0.156
CN1Cc2cc(Nc3ncc4c(=O)n(-c5c(Cl)cccc5Cl)cc(Br)c4n3)ccc2C2(CC2)C1 [Compound P20, 8-bromo-6-(2,6-dichlorophenyl)-2-[(2-methylspiro[1,3-dihydroisoquinoline-4,1′-cyclopropane]-7-yl)amino]pyrido[4,3-d]pyrimidin-5-one] |  |  | 0.313 | 0.156
CN1CCN(c2ccc(Nc3ncc4c(=O)n(-c5c(Cl)cccc5Cl)cc(Br)c4n3)cc2)CC1 [Compound P21, 8-bromo-6-(2,6-dichlorophenyl)-2-[4-(4-methylpiperazin-1-yl)anilino]pyrido[4,3-d]pyrimidin-5-one] |  |  | 0.625 | 0.313 and 0.625
CN(C)C1CCc2ccc(Nc3ncc4c(=O)n(-c5c(Cl)cccc5Cl)cc(Br)c4n3)cc21 (centres unmarked) [Compound P22, 8-bromo-6-(2,6-dichlorophenyl)-2-[[3-(dimethylamino)indan-5-yl]amino]pyrido[4,3-d]pyrimidin-5-one] |  |  | 2.5 | 1.25
NC1CCc2ccc(Nc3ncc4c(=O)n(-c5c(Cl)cccc5Cl)cc(Br)c4n3)cc21 (centres unmarked) [Compound P23, 2-[(3-aminoindan-5-yl)amino]-8-bromo-6-(2,6-dichlorophenyl)pyrido[4,3-d]pyrimidin-5-one] |  |  | 5 | 2.5
O=c1c2cnc(Nc3ccc4c(c3)C(O)CC4)nc2c(Br)cn1-c1c(Cl)cccc1Cl (centres unmarked) [Compound P24, 8-bromo-6-(2,6-dichlorophenyl)-2-[(3-hydroxyindan-5-yl)amino]pyrido[4,3-d]pyrimidin-5-one] |  |  | 5 | 1.25
Cc1cccc(F)c1-n1cc(Br)c2nc(Nc3cnn(C4CCN(C)CC4)c3)ncc2c1=O [Compound P26, 8-bromo-6-(2-fluoro-6-methyl-phenyl)-2-[[1-(1-methyl-4-piperidyl)pyrazol-4-yl]amino]pyrido[4,3-d]pyrimidin-5-one] |  |  | 5 | 0.625

Further lines, results first:

IC50 [1] [nM] | IC50 [2] [nM] | WEE1 Guava MEC Guava MEC [3] [µM] | WEE1 Guava MEC with 20 nM GEM [3] | Compound
 | 41 | 0.625 | 0.156 | CN1CCC(n2cc(Nc3ncc4c(=O)n(-c5c(Cl)cccc5Cl)cc(Br)c4n3)cn2)CC1 [Compound P1, 8-bromo-6-(2,6-dichlorophenyl)-2-[[1-(1-methyl-4-piperidyl)pyrazol-4-yl]amino]pyrido[4,3-d]pyrimidin-5-one]
 | 47 | 1.25 | 0.625 | CCc1cn(-c2c(Cl)cccc2Cl)c(=O)c2cnc(Nc3cnn(C4CCNCC4)c3)nc12 [Compound P4, 6-(2,6-dichlorophenyl)-8-ethyl-2-[[1-(4-piperidyl)pyrazol-4-yl]amino]pyrido[4,3-d]pyrimidin-5-one]
 |  | 2.5 | 0.625 | Cc1cc(Cl)c(-n2cc(Br)c3nc(Nc4cnn(C5CCNCC5)c4)ncc3c2=O)c(Cl)c1 [Compound P16, 8-bromo-6-(2,6-dichloro-4-methyl-phenyl)-2-[[1-(4-piperidyl)pyrazol-4-yl]amino]pyrido[4,3-d]pyrimidin-5-one]
 |  | 2.5 | 0.625 | Cc1cc(Cl)c(-n2cc(Br)c3nc(Nc4cnn(C5CCN(C)CC5)c4)ncc3c2=O)c(Cl)c1 [Compound P17, 8-bromo-6-(2,6-dichloro-4-methyl-phenyl)-2-[[1-(1-methyl-4-piperidyl)pyrazol-4-yl]amino]pyrido[4,3-d]pyrimidin-5-one]
 |  | 5 | 0.625 | Cc1cccc(F)c1-n1cc(Br)c2nc(Nc3cnn(C4CCNCC4)c3)ncc2c1=O [Compound P25, 8-bromo-6-(2-fluoro-6-methyl-phenyl)-2-[[1-(4-piperidyl)pyrazol-4-yl]amino]pyrido[4,3-d]pyrimidin-5-one]
 |  | 1.25 | 0.625 | Cc1cccc(C)c1-n1cc(Br)c2nc(Nc3cnn(C4CCN(C)CC4)c3)ncc2c1=O [Compound P27, 8-bromo-6-(2,6-dimethylphenyl)-2-[[1-(1-methyl-4-piperidyl)pyrazol-4-yl]amino]pyrido[4,3-d]pyrimidin-5-one]
